Converted amounts (≈) assume the structure as drawn.
Columns and labels:
Staphylococcus aureus [1] = assay: Antibacterial activity against Staphylococcus aureus ATCC 25923 after 24 hrs by broth dilution technique; assay type: functional; settings: ATCC-25923, 24 h
Escherichia coli [2] = assay: Antibacterial activity against Escherichia coli ATCC 25922 after 24 hrs by disc diffusion method; assay type: functional
Klebsiella pneumoniae [3] = assay: Antibacterial activity against Klebsiella pneumoniae clinical isolate after 24 hrs by broth dilution technique; assay type: functional
Streptococcus pyogenes [4] = assay: Antibacterial activity against Streptococcus pyogenes clinical isolate after 24 hrs by disc diffusion method; assay type: functional
Staphylococcus aureus [5] = assay: Antibacterial activity against Staphylococcus aureus ATCC 25923 after 24 hrs by disc diffusion method; assay type: functional
Candida albicans [6] = assay: Antifungal activity against Candida albicans after 3 to 4 days by disc diffusion method; assay type: functional
Aspergillus fumigatus [7] = assay: Antifungal activity against Aspergillus fumigatus after 3 to 4 days by disc diffusion method; assay type: functional
Talaromyces marneffei [8] = assay: Antifungal activity against Penicillium marneffei after 3 to 4 days by disc diffusion method; assay type: functional
[9] = tested on: Trichophyton mentagrophytes; assay: Antifungal activity against Trichophyton mentagrophytes after 3 to 4 days by disc diffusion method; assay type: functional
Candida albicans [10] = assay: Antifungal activity against Candida albicans after 48 hrs by broth dilution technique; assay type: functional
Pseudomonas aeruginosa [11] = assay: Antibacterial activity against Pseudomonas aeruginosa ATCC 27853 after 24 hrs by disc diffusion method
Escherichia coli [12] = assay: Antibacterial activity against Escherichia coli ATCC 25922 after 24 hrs by broth dilution technique; assay type: functional; settings: ATCC-25922, 24 h
Klebsiella pneumoniae [13] = assay: Antibacterial activity against Klebsiella pneumoniae clinical isolate after 24 hrs by disc diffusion method; assay type: functional
Streptococcus pyogenes [14] = assay: Antibacterial activity against Streptococcus pyogenes clinical isolate after 24 hrs by broth dilution technique; assay type: functional
Aspergillus fumigatus [15] = assay: Antifungal activity against Aspergillus fumigatus after 48 hrs by broth dilution technique; assay type: functional
Talaromyces marneffei [16] = assay: Antifungal activity against Penicillium marneffei after 48 hrs by broth dilution technique; assay type: functional
[17] = tested on: Trichophyton mentagrophytes; assay: Antifungal activity against Trichophyton mentagrophytes after 48 hrs by broth dilution technique; assay type: functional
Pseudomonas aeruginosa [18] = assay: Antibacterial activity against Pseudomonas aeruginosa ATCC 27853 after 24 hrs by broth dilution technique; settings: ATCC-27853, 24 h

Row | Structure (SMILES) | MIC (Staphylococcus aureus [1]) | diameter of the inhibition zone (DIZ) (Escherichia coli [2]) | MBC (Klebsiella pneumoniae [3]) | MIC (Klebsiella pneumoniae [3]) | diameter of the inhibition zone (DIZ) (Streptococcus pyogenes [4]) | diameter of the inhibition zone (DIZ) (Staphylococcus aureus [5]) | diameter of the inhibition zone (DIZ) (Candida albicans [6]) | diameter of the inhibition zone (DIZ) (Aspergillus fumigatus [7]) | diameter of the inhibition zone (DIZ) (Talaromyces marneffei [8]) | diameter of the inhibition zone (DIZ) [9] | MFC (Candida albicans [10]) | MIC (Candida albicans [10]) | diameter of the inhibition zone (DIZ) (Pseudomonas aeruginosa [11]) | MBC (Escherichia coli [12]) | MIC (Escherichia coli [12]) | diameter of the inhibition zone (DIZ) (Klebsiella pneumoniae [13]) | MFC (Aspergillus fumigatus [15]) | MIC (Aspergillus fumigatus [15]) | MBC (Pseudomonas aeruginosa [18]) | MIC (Pseudomonas aeruginosa [18]) | also measured
1 | C=CCCCCCCCCC(=O)Nc1ccccc1O | 100 µg/mL (≈ 363 µM) | 12.7 mm | 100 µg/mL (≈ 363 µM) | 100 µg/mL (≈ 363 µM) | 11.1 mm | 10.9 mm | 12.5 mm | 9.2 mm | 8.9 mm | 8.3 mm | 100 µg/mL (≈ 363 µM) | 50 µg/mL (≈ 182 µM) | 14.3 mm |  |  |  |  |  |  |  | 
2 | CCCCCCCCCCCCCCCCCC(=O)N(C(=O)NC1CCCCC1)C1CCCCC1 | 50 µg/mL (≈ 102 µM) | 13.3 mm | 100 µg/mL (≈ 204 µM) | 100 µg/mL (≈ 204 µM) | 11.5 mm | 11.3 mm | 15.1 mm | 13.6 mm | 10.5 mm | 12.2 mm | 50 µg/mL (≈ 102 µM) | 25 µg/mL (≈ 50.9 µM) | 12.2 mm | 100 µg/mL (≈ 204 µM) | 50 µg/mL (≈ 102 µM) | 12.7 mm | 100 µg/mL (≈ 204 µM) | 50 µg/mL (≈ 102 µM) | 100 µg/mL (≈ 204 µM) | 25 µg/mL (≈ 50.9 µM) | MBC (Staphylococcus aureus [1]): 100 µg/mL (≈ 204 µM); MBC (Streptococcus pyogenes [14]): 100 µg/mL (≈ 204 µM); MIC (Streptococcus pyogenes [14]): 50 µg/mL (≈ 102 µM); MFC (Talaromyces marneffei [16]): 100 µg/mL (≈ 204 µM); MIC (Talaromyces marneffei [16]): 50 µg/mL (≈ 102 µM); MFC [17]: 100 µg/mL (≈ 204 µM); MIC [17]: 50 µg/mL (≈ 102 µM)
3 | CCCCCCCC/C=C\CCCCCCCC(=O)N(C(=O)NC1CCCCC1)C1CCCCC1 |  | 15.4 mm |  |  | 13.5 mm | 13.4 mm | 13.9 mm | 9.9 mm |  |  | 100 µg/mL (≈ 205 µM) | 50 µg/mL (≈ 102 µM) | 17.2 mm | 100 µg/mL (≈ 205 µM) | 100 µg/mL (≈ 205 µM) | 12.8 mm | 100 µg/mL (≈ 205 µM) | 50 µg/mL (≈ 102 µM) | 100 µg/mL (≈ 205 µM) | 100 µg/mL (≈ 205 µM) | 
4 | C=CCCCCCCCCC(=O)N(C(=O)NC1CCCCC1)C1CCCCC1 |  | 10.6 mm |  |  |  |  | 12.1 mm |  |  |  | 100 µg/mL (≈ 256 µM) | 50 µg/mL (≈ 128 µM) | 12.1 mm | 100 µg/mL (≈ 256 µM) | 100 µg/mL (≈ 256 µM) |  |  |  | 100 µg/mL (≈ 256 µM) | 50 µg/mL (≈ 128 µM) | 
5 | CCCCCC[C@@H](O)C/C=C\CCCCCCCC(=O)Nc1ccccc1O | 50 µg/mL (≈ 128 µM) | 17.7 mm |  |  | 16.1 mm | 15.6 mm | 16.2 mm | 12.8 mm | 10.1 mm | 10.5 mm | 50 µg/mL (≈ 128 µM) | 25 µg/mL (≈ 64.2 µM) | 15.2 mm | 100 µg/mL (≈ 257 µM) | 25 µg/mL (≈ 64.2 µM) | 14.7 mm | 100 µg/mL (≈ 257 µM) | 50 µg/mL (≈ 128 µM) | 100 µg/mL (≈ 257 µM) | 25 µg/mL (≈ 64.2 µM) | MBC (Staphylococcus aureus [1]): 100 µg/mL (≈ 257 µM); MBC (Streptococcus pyogenes [14]): 100 µg/mL (≈ 257 µM); MIC (Streptococcus pyogenes [14]): 50 µg/mL (≈ 128 µM); MFC (Talaromyces marneffei [16]): 100 µg/mL (≈ 257 µM); MIC (Talaromyces marneffei [16]): 50 µg/mL (≈ 128 µM); MFC [17]: 100 µg/mL (≈ 257 µM); MIC [17]: 50 µg/mL (≈ 128 µM)
6 | CCCCC/C=C\CC[C@H](O)CCCCCCCC(=O)N(C(=O)NC1CCCCC1)C1CCCCC1 | 25 µg/mL (≈ 49.5 µM) | 23.4 mm | 100 µg/mL (≈ 198 µM) | 25 µg/mL (≈ 49.5 µM) | 20.8 mm | 19.5 mm | 24.2 mm | 21.2 mm | 13.8 mm | 18.3 mm | 12.5 µg/mL (≈ 24.8 µM) | 12.5 µg/mL (≈ 24.8 µM) | 27.1 mm | 100 µg/mL (≈ 198 µM) | 50 µg/mL (≈ 99 µM) | 20.6 mm | 25 µg/mL (≈ 49.5 µM) | 12.5 µg/mL (≈ 24.8 µM) | 100 µg/mL (≈ 198 µM) | 25 µg/mL (≈ 49.5 µM) | MBC (Staphylococcus aureus [1]): 50 µg/mL (≈ 99 µM); MBC (Streptococcus pyogenes [14]): 25 µg/mL (≈ 49.5 µM); MIC (Streptococcus pyogenes [14]): 25 µg/mL (≈ 49.5 µM); MFC (Talaromyces marneffei [16]): 25 µg/mL (≈ 49.5 µM); MIC (Talaromyces marneffei [16]): 12.5 µg/mL (≈ 24.8 µM); MFC [17]: 25 µg/mL (≈ 49.5 µM); MIC [17]: 12.5 µg/mL (≈ 24.8 µM)
7 | CCCCCCCCCCCCCCCCCC(=O)Nc1ccccc1O | 100 µg/mL (≈ 266 µM) | 12.4 mm | 100 µg/mL (≈ 266 µM) | 50 µg/mL (≈ 133 µM) | 10.8 mm | 10.5 mm | 14.7 mm | 12.4 mm | 10.2 mm | 10.5 mm | 25 µg/mL (≈ 66.6 µM) | 12.5 µg/mL (≈ 33.3 µM) | 11.9 mm | 100 µg/mL (≈ 266 µM) | 100 µg/mL (≈ 266 µM) | 11.4 mm | 50 µg/mL (≈ 133 µM) | 25 µg/mL (≈ 66.6 µM) | 100 µg/mL (≈ 266 µM) | 100 µg/mL (≈ 266 µM) | MBC (Staphylococcus aureus [1]): 100 µg/mL (≈ 266 µM); MBC (Streptococcus pyogenes [14]): 100 µg/mL (≈ 266 µM); MIC (Streptococcus pyogenes [14]): 50 µg/mL (≈ 133 µM); MFC (Talaromyces marneffei [16]): 100 µg/mL (≈ 266 µM); MIC (Talaromyces marneffei [16]): 50 µg/mL (≈ 133 µM); MFC [17]: 100 µg/mL (≈ 266 µM); MIC [17]: 50 µg/mL (≈ 133 µM)

From ChEMBL document CHEMBL1759880, “A facile, one-pot synthesis, characterization and antimicrobial activity of o-hydroxy anilide derivatives and 1-substituted-1,3-dicyclohexylurea analogs of long chain carboxylic acids” (2011)
